Assay results reported in patent US20240270712A1, “BENZIMIDAZOLE COMPOUND OR SALT THEREOF, CANINE FILARIASIS CONTROL AGENT CONTAINING SAME, AND METHOD OF USE THEREOF” (NIHON NOHYAKU CO., LTD., priority 2021, published 2024).

System: L-3 stage larvae of canine filariae (Dirofilaria immitis)
Assay: Impact evaluation test on growth of canine filariae
Assay type: cell-based
Details: 168 h, read-out: growth inhibition rate (growth from L3-stage larvae to L4-stage larvae)

**Q.** With `FC(F)(F)C(F)(F)COc1ccc(-c2nc3cc(Br)c(Br)cc3[nH]2)cn1` [Compound 1-5, 5,6-dibromo-2-(6-(2,2,3,3,3-pentafluoropropyloxy)pyridin-3-yl)benzimidazole] as the compound, how does the inhibition at 50 ppm read?
**A.** ≥ 50%
